Data published in US20100062995A1, “Transition state structure of human 5'methylthioadenosine phosphorylase” (priority 2006, published 2010).
Several values for one entry are separate records, joined by “and”; a condition that tells them apart may be missing. Equal values may be shown once. Marks after values point to notes of the source that are not given here.

Legend:
[1] = molecular target: T1, human MTAP (Homo sapiens, UniProt Q13126); details: cited from earlier work; for kcat: human MTAP (Kung et al., 2005); for fold increase in Km relative to MTA: human MTAP
T1 construct: His6 (N); made in house; host or cells: E. coli (pQE32 vector)
T1 sequence (Q13126 1-283): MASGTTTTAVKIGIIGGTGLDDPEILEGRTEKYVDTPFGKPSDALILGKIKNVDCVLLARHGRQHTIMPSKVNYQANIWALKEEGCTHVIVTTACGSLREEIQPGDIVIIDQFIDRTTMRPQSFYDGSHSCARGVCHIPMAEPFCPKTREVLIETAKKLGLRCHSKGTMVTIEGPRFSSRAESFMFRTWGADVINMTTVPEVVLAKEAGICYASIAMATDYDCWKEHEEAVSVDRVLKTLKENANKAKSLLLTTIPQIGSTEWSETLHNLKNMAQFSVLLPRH

[2] = molecular target: T1, human MTAP; assay: Kinetic analysis with substrate analogues (kcat, Km); type: biochemical
Source text: Kinetic analysis with substrate analogues provide additional evidence concerning the importance of the 3′-hydroxyl in catalysis (Kung et al., 2005). […] The formation of an oxyanion from ionization of the 3′-hydroxyl further stabilizes the positive charge at the anomeric carbon.

[3] = molecular target: T1, human MTAP; assay: Measurement of kinetic isotope effects on arsenolysis of MTA; type: biochemical; details: pH 7.5, arsenolysis of MTA; for KIE (experimental): corrected to 0% substrate depletion; for Intrinsic KIEs: observed KIE corrected for forward commitment
Description: Measurement of kinetic isotope effects. The KIEs were measured by mixing ^3H and ^14C labeled substrates with ^3H:^14C in 4:1 ratio. […] After 20-30% completion of the reaction, 750 μL of the reaction was resolved on charcoal-Sepharose (acid-washed powdered charcoal and Sepharose in 1:4 ratio made into a slurry in 1 mM 5-methylthioribose (MTR) and settled in Pasteur pipettes). The remainder of the reaction mixture was allowed to react to completion and then applied to the column. Columns were washed with 2 volumes of 1 mM MTR and radioactive methylthioribose was eluted with 6 volumes of 15 mM MTR containing 50% ethanol. Each 1.0 mL of eluate was mixed with 9.0 mL scintillation fluid and counted for at least 3 cycles at 10 minutes per cycle. The ^3H to ^14C ratio was determined for partial and complete reactions and the KIEs were corrected to 0% hydrolysis by the equation: […]
where f is the fraction of reaction progress and Rf and Ro are ratios of heavy to light isotope at partial and total completion of reaction, respectively.
Experimental kinetic isotope effects (KIEs) and commitment factors. […] To avoid kinetic complexity associated with the transition state analyses for reversible reactions, the KIEs for the human MTAP were measured on the physiologically irreversible reaction of arsenolysis. The products of arsenolysis are adenine and 5-methylthioribose 1-arsenate. Methylthioribose 1-arsenate is unstable and rapidly decomposes to form methylthioribose and arsenate.
Where ^T(V/K) is an observed tritium isotope effect, Cf is the forward commitment to catalysis. The intrinsic KIEs were obtained by correcting the observed KIEs (column 3, Table 1) for the forward commitment.

[4] = molecular target: E. coli MTAN (Escherichia coli, UniProt P0AF12); details: E. coli MTAN (Singh et al., 2005a); cited from earlier work
Sequence of E. coli MTAN (P0AF12 whole entry): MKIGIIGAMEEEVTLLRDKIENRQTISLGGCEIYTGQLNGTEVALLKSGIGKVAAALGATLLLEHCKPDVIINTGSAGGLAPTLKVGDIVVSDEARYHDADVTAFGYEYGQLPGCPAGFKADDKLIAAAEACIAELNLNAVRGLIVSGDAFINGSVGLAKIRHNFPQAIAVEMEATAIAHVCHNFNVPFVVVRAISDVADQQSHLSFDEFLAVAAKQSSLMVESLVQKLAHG

[5] = molecular target: S. pneumoniae MTAN (Streptococcus pneumoniae, UniProt Q8DQ16); details: S. pneumoniae MTAN (Singh et al., 2005a); cited from earlier work
Sequence of S. pneumoniae MTAN (Q8DQ16 entry or part of it): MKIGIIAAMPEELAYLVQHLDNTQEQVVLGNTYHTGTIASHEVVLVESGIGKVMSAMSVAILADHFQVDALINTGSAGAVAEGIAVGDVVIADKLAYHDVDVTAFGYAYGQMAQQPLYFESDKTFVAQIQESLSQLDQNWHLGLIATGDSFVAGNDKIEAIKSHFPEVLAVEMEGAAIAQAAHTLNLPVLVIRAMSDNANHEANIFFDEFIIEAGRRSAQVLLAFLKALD

## CSC[C@H]1O[C@@H](n2cnc3c(N)ncnc32)C[C@@H]1O [2′-deoxy MTA]
[1]
  kcat: 0.28 s⁻¹
  fold increase in Km relative to MTA: ~2 fold

## CSC[C@@H]1C[C@@H](O)[C@H](n2cnc3c(N)ncnc32)O1 [3′-deoxy MTA]
[2]
  fold decrease in kcat relative to MTA: ~1000 fold
[1]
  kcat: 0.004 s⁻¹
  fold increase in Km relative to MTA: ~2 fold

## [3H]C1(n2cnc3c(N)ncnc32)OC(CSC)C(O)C1O (stereo not shown) [[1′-^3H], [1′-^3H]MTA]
[3]
  KIE (experimental): 1.290 ± 0.003
  Intrinsic KIEs: 1.350 ± 0.003
[3]; listed as 1′-^3H
  Intrinsic KIEs: 1.35

## CSC[C@H]1O[14C@@H](n2cnc3c(N)ncnc32)[C@H](O)[C@@H]1O [[1′-^14C], [1′-^14C]MTA]
[3]
  KIE (experimental): 1.025 ± 0.005^b
  Intrinsic KIEs: 1.030 ± 0.005
[3]; listed as 1′-^14C
  Intrinsic KIEs: 1.029
[3]; listed as 1′-^14C MTA
  Intrinsic KIEs: 1.029

## [3H][C@@]1(O)[C@H](O)[C@@H](CSC)O[C@H]1n1cnc2c(N)ncnc21 [[2′-^3H], [2′-^3H]MTA]
[3]
  KIE (experimental): 1.063 ± 0.003
  Intrinsic KIEs: 1.076 ± 0.003
[3]; listed as 2′-^3H
  Intrinsic KIEs: 1.076

## [3H][C@]1(CSC)O[C@@H](n2cnc3c(N)ncnc32)[C@H](O)[C@@H]1O [[4′-^3H], [4′-^3H]MTA]
[4]
  intrinsic 4′-^3H KIE: 1.010
[3]
  KIE (experimental): 1.037 ± 0.005
  Intrinsic KIEs: 1.045 ± 0.005
[3]; listed as 4′-^3H
  Intrinsic KIEs: 1.045
[5]
  intrinsic 4′-^3H KIE: 1.015

## [3H]C([3H])(SC)[C@H]1O[C@@H](n2cnc3c(N)ncnc32)[C@H](O)[C@@H]1O [[5′-^3H], [5′-^3H]MTA]
[3]
  KIE (experimental): 1.038 ± 0.001
  Intrinsic KIEs: 1.046 ± 0.001
[3]; listed as [5′-^3H2] MTA
  Intrinsic KIEs: 1.046

## CS[14CH2][C@H]1O[C@@H]([15n]2cnc3c(N)ncnc32)[C@H](O)[C@@H]1O [[9-^15N/5′-^14C]]
[3]
  KIE (experimental): 1.031 ± 0.002^c
  Intrinsic KIEs: 1.037 ± 0.002
[3]; listed as 9-^15N
  Intrinsic KIEs: 1.037 and 1.036
[3]; listed as 9-^15N MTA
  Intrinsic KIEs: 1.037
[3]; listed as 15N9
  Intrinsic KIEs: 1.036

## [3H]C([3H])([3H])SC[C@H]1O[C@@H](n2cnc3c(N)ncnc32)[C@H](O)[C@@H]1O [[Me-^3H], [methyl-^3H3]MTA]
[3]
  KIE (experimental): 1.073 ± 0.002
  Intrinsic KIEs: 1.086 ± 0.002
[3]; listed as [Me-^3H3] MTA
  Intrinsic KIEs: 1.086
